Assay results taken from paper PMC9945734 (BMC Medicine, 2023).

Test system: PC-3-KQ and PC-3-KR cells
Experiment: RNA-sequencing and differential gene expression
Type: cell-based, human
Settings: for logFC: KQ-Control vs KQ-NTZ

CC(=O)Oc1ccccc1C(=O)Nc1ncc([N+](=O)[O-])s1 [Nitazoxanide]
change of NTZ treatment (gene ANKRD36C): down | logFC (gene ANKRD37): 0.9125 | logFC (gene ANXA8): 0.7906 | change of NTZ treatment (gene ANXA8L1): down | change of NTZ treatment (gene ARG2): up | logFC (gene ARG2): 2.138 | change of NTZ treatment (gene ARL10): down | change of NTZ treatment (gene ARSK): up | logFC (gene ARSK): 0.7653 | change of NTZ treatment (gene ASB2): down | logFC (gene ATP2A3): 1.284 | change of NTZ treatment (gene BRINP2): down | change of NTZ treatment (gene BTBD11): down | change of NTZ treatment (gene BTN3A3): up | logFC (gene CAPN12): 0.767 | change of NTZ treatment (gene CAPSL): down | logFC (gene CCNA1): 0.9046 | change of NTZ treatment (gene CEP19): down | logFC (gene CFB): 0.9221 | change of NTZ treatment (gene CNTNAP3B): down | logFC (gene COL4A3): 2.258 | logFC (gene COL4A4): 0.8129 | change of NTZ treatment (gene CSF1R): up | change of NTZ treatment (gene CXCL5): down | change of NTZ treatment (gene CYP1B1): up | change of NTZ treatment (gene CYP2E1): up | change of NTZ treatment (gene CYP8B1): up | logFC (gene CYP8B1): 1.238 | change of NTZ treatment (gene CYSTM1): up | logFC (gene CYSTM1): 0.6246 | change of NTZ treatment (gene DEPTOR): down | change of NTZ treatment (gene DISP1): up | logFC (gene DISP1): 0.6346 | change of NTZ treatment (gene DMPK): up | logFC (gene DMPK): 0.6319 | change of NTZ treatment (gene DRP2): down | change of NTZ treatment (gene ECM2): down | change of NTZ treatment (gene ESPN): up | logFC (gene FA2H): 1.574 | change of NTZ treatment (gene FAM83D): down | logFC (gene FAM178B): 1.11 | change of NTZ treatment (gene FAM186B): down | change of NTZ treatment (gene FANCI): down | change of NTZ treatment (gene FANCL): down | change of NTZ treatment (gene FCGBP): down | logFC (gene FER1L6): 0.6222 | logFC (gene FIBCD1): 1.28 | change of NTZ treatment (gene FLI1): down | change of NTZ treatment (gene FLRT1): down | change of NTZ treatment (gene FRY): up | logFC (gene FRY): 1.204 | change of NTZ treatment (gene FSD2): down | logFC (gene FTH1): 1.218 | logFC (gene FUT3): 0.7626 | logFC (gene FXYD3): 0.8317 | change of NTZ treatment (gene FZD4): down | logFC (gene GALNT12): 0.8862 | change of NTZ treatment (gene GCNT3): up | logFC (gene GCNT3): 2.701 | logFC (gene GDPD3): 1.109 | change of NTZ treatment (gene HAS3): down | change of NTZ treatment (gene HSPB8): up | logFC (gene HSPB8): 1.784 | change of NTZ treatment (gene IFITM10): up | change of NTZ treatment (gene IGDCC4): up | logFC (gene IGDCC4): 1.493 | change of NTZ treatment (gene IGF2BP1): down | change of NTZ treatment (gene IL1RN): up | logFC (gene IL36RN): 0.6398 | change of NTZ treatment (gene INHBA): down | change of NTZ treatment (gene KDELR2): up | logFC (gene KDELR2): 0.621 | logFC (gene KIAA0319): 2.322 | change of NTZ treatment (gene KIAA1755): down | logFC (gene KLHDC7B): 1.286 | logFC (gene LOC105374299): 1.732 | change of NTZ treatment (gene LONRF2): down | logFC (gene LRRK1): 0.8715 | change of NTZ treatment (gene LTB): down | change of NTZ treatment (gene MAP2): up | logFC (gene MAP2): 0.8904 | change of NTZ treatment (gene MCM4): down | change of NTZ treatment (gene MEF2C): up | change of NTZ treatment (gene MEOX1): down | change of NTZ treatment (gene METRNL): up | logFC (gene MFSD2A): 0.6152 | logFC (gene MINAR1): 1.165 | change of NTZ treatment (gene MMP9): down | change of NTZ treatment (gene MROH8): down | change of NTZ treatment (gene MUC4): up | logFC (gene MUC4): 1.575 | logFC (gene MVP): 0.7778 | change of NTZ treatment (gene MYH7B): down | change of NTZ treatment (gene NAV1): up | logFC (gene NAV1): 1.226 | logFC (gene NECTIN4): 1.852 | change of NTZ treatment (gene NKD1): down | logFC (gene NLRC5): 0.8508 | change of NTZ treatment (gene NR4A2): up | change of NTZ treatment (gene NT5E): up | logFC (gene NT5E): 0.5964 | change of NTZ treatment (gene PCDH18): down | logFC (gene PDGFA): 0.7622 | change of NTZ treatment (gene PDZK1): up | logFC (gene PDZK1): 0.8579 | change of NTZ treatment (gene PGAM4): down | change of NTZ treatment (gene PHOSPHO2): down | change of NTZ treatment (gene PIANP): down | logFC (gene PKIA): 0.8539 | change of NTZ treatment (gene PLEKHG1): up | logFC (gene PRKAR1B): 0.8008 | change of NTZ treatment (gene PRKDC): down | change of NTZ treatment (gene PROS1): up | logFC (gene PROS1): 0.9134 | change of NTZ treatment (gene PRR16): down | change of NTZ treatment (gene PRRT4): down | change of NTZ treatment (gene RBL1): down | logFC (gene RMDN2): 0.9051 | change of NTZ treatment (gene RND1): up | change of NTZ treatment (gene RP1L1): down | change of NTZ treatment (gene S100A6): up | logFC (gene S100A6): 0.6427 | logFC (gene SAT1): 0.7952 | logFC (gene SDCBP2): 1.238 | change of NTZ treatment (gene SERPINA5): down | change of NTZ treatment (gene SERPINB3): down | change of NTZ treatment (gene SERPINB4): down | change of NTZ treatment (gene SERPIND1): down | change of NTZ treatment (gene SGK3): up | change of NTZ treatment (gene SHISA3): down | change of NTZ treatment (gene SLC41A2): up | logFC (gene SLC41A2): 0.8444 | change of NTZ treatment (gene SLFN11): up | change of NTZ treatment (gene SMCO4): up | change of NTZ treatment (gene SPOCK2): up | logFC (gene SPOCK2): 1.756 | logFC (gene SRPX): 0.5983 | logFC (gene STK32A): 1.274 | logFC (gene SYN3): 1.227 | logFC (gene TBX2): 0.6055 | change of NTZ treatment (gene TCN1): down | change of NTZ treatment (gene TJP3): up | logFC (gene TJP3): 0.6134 | change of NTZ treatment (gene TMEM140): up | change of NTZ treatment (gene TMEM269): up | logFC (gene TMEM269): 0.7715 | logFC (gene TMOD1): 1.793 | logFC (gene TMPRSS2): 1.205 | change of NTZ treatment (gene TNFRSF6B): down | change of NTZ treatment (gene TNFRSF11B): down | logFC (gene TNFSF14): 1.643 | change of NTZ treatment (gene TRIM31): up | logFC (gene TRIM31): 1.207 | change of NTZ treatment (gene TTC9): up | change of NTZ treatment (gene TTC30B): down | logFC (gene UGT2B7): 1.608 | logFC (gene WHRN): 0.869 | logFC (gene WNT4): 1.78 | change of NTZ treatment (gene WNT9A): up | change of NTZ treatment (gene ZNF302): down
